# Source: PubChem BioAssay (NCI)
#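 How tested: cells in 96-well plates exposed to compound for 48 hours at five concentrations. GI50 marks 50% less growth. TGI: concentration producing complete growth inhibition.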
# Assays:
# Experiment in all cases: NCI tumour cell line growth inhibition, 48 h
# CCRF-CEM leukemia = system: CCRF-CEM leukemia
# OVCAR-5 ovarian = system: OVCAR-5 ovarian
# COLO 205 colon = system: COLO 205 colon
# MALME-3M melanoma = system: MALME-3M melanoma
# NCI-H460 lung = system: NCI-H460 lung
# RPMI-8226 leukemia = system: RPMI-8226 leukemia
# HOP-62 NSCLC = system: HOP-62 NSCLC
# MDA-MB-435 = system: MDA-MB-435
# SR leukemia = system: SR leukemia
# OVCAR-3 ovarian = system: OVCAR-3 ovarian
# SK-OV-3 ovarian = system: SK-OV-3 ovarian
# NCI-H226 lung = system: NCI-H226 lung
# SF-268 CNS = system: SF-268 CNS
# M14 melanoma = system: M14 melanoma
# NCI-H522 lung = system: NCI-H522 lung
# 786-0 renal = system: 786-0 renal
# NCI/ADR-RES ovarian = system: NCI/ADR-RES ovarian
# HL-60(TB) leukemia = system: HL-60(TB) leukemia
# MDA-MB-231 breast = system: MDA-MB-231 breast
# HCC-2998 colon = system: HCC-2998 colon
# ACHN renal = system: ACHN renal
# T-47D breast = system: T-47D breast
# SK-MEL-28 melanoma = system: SK-MEL-28 melanoma
# OVCAR-8 ovarian = system: OVCAR-8 ovarian
# CAKI-1 renal = system: CAKI-1 renal
# HT29 colon = system: HT29 colon
# SNB-19 CNS = system: SNB-19 CNS
# A549 NSCLC = system: A549 NSCLC
# UACC-257 melanoma = system: UACC-257 melanoma
# MOLT-4 leukemia = system: MOLT-4 leukemia
# EKVX NSCLC = system: EKVX NSCLC
# SF-539 CNS = system: SF-539 CNS
# KM12 colon = system: KM12 colon
# UO-31 renal = system: UO-31 renal
# BT-549 breast = system: BT-549 breast
# UACC-62 melanoma = system: UACC-62 melanoma
# SK-MEL-5 melanoma = system: SK-MEL-5 melanoma
# K-562 leukemia = system: K-562 leukemia
# MDA-MB-468 breast = system: MDA-MB-468 breast
# IGROV1 ovarian = system: IGROV1 ovarian
# A498 renal = system: A498 renal
# SN12C renal = system: SN12C renal
# DU-145 prostate = system: DU-145 prostate
# SF-295 CNS = system: SF-295 CNS
# OVCAR-4 ovarian = system: OVCAR-4 ovarian
# SK-MEL-2 melanoma = system: SK-MEL-2 melanoma
# U251 CNS = system: U251 CNS
# NCI-H23 lung = system: NCI-H23 lung
# LOX IMVI melanoma = system: LOX IMVI melanoma
# PC-3 prostate = system: PC-3 prostate
# RXF 393 renal = system: RXF 393 renal
# SW-620 colon = system: SW-620 colon
# TK-10 renal = system: TK-10 renal
# HCT-116 colon = system: HCT-116 colon
# HCT-15 colon = system: HCT-15 colon
# MCF7 breast = system: MCF7 breast
# HS 578T breast = system: HS 578T breast
structure (smiles),measurement,setting,value
Cc1ccc2nc3c(nc2c1)c1cc(I)ccc1n3CCN(C)C,GI50,CCRF-CEM leukemia,12.6 µM
same,TGI,CCRF-CEM leukemia,28.7 µM
same,GI50,OVCAR-5 ovarian,5.36 µM
same,TGI,OVCAR-5 ovarian,18.5 µM
same,GI50,COLO 205 colon,3.56 µM
same,TGI,COLO 205 colon,16.7 µM
same,GI50,MALME-3M melanoma,10.3 µM
same,TGI,MALME-3M melanoma,23.1 µM
same,GI50,NCI-H460 lung,3.51 µM
same,TGI,NCI-H460 lung,14 µM
same,GI50,RPMI-8226 leukemia,7.59 µM
same,TGI,RPMI-8226 leukemia,25.4 µM
same,GI50,HOP-62 NSCLC,4.81 µM
same,TGI,HOP-62 NSCLC,20.5 µM
same,GI50,MDA-MB-435,7.41 µM
same,TGI,MDA-MB-435,20 µM
same,GI50,SR leukemia,3.18 µM
same,TGI,SR leukemia,14.8 µM
same,GI50,OVCAR-3 ovarian,5.63 µM
same,TGI,OVCAR-3 ovarian,18.7 µM
same,GI50,SK-OV-3 ovarian,13.3 µM
same,TGI,SK-OV-3 ovarian,30.5 µM
same,GI50,NCI-H226 lung,5.98 µM
same,TGI,NCI-H226 lung,23.4 µM
same,GI50,SF-268 CNS,5.36 µM
same,TGI,SF-268 CNS,19.2 µM
same,GI50,M14 melanoma,11.1 µM
same,TGI,M14 melanoma,25.4 µM
same,GI50,NCI-H522 lung,4.64 µM
same,TGI,NCI-H522 lung,18.5 µM
same,GI50,786-0 renal,5.54 µM
same,TGI,786-0 renal,19.1 µM
same,GI50,NCI/ADR-RES ovarian,4.67 µM
same,TGI,NCI/ADR-RES ovarian,18.4 µM
same,GI50,HL-60(TB) leukemia,3.16 µM
same,TGI,HL-60(TB) leukemia,20.5 µM
same,GI50,MDA-MB-231 breast,4.25 µM
same,TGI,MDA-MB-231 breast,18 µM
same,GI50,HCC-2998 colon,3.81 µM
same,TGI,HCC-2998 colon,15.3 µM
same,GI50,ACHN renal,3.05 µM
same,TGI,ACHN renal,13.2 µM
same,GI50,T-47D breast,7.9 µM
same,TGI,T-47D breast,24.9 µM
same,GI50,SK-MEL-28 melanoma,13.8 µM
same,TGI,SK-MEL-28 melanoma,26.7 µM
same,GI50,OVCAR-8 ovarian,3.72 µM
same,TGI,OVCAR-8 ovarian,15.2 µM
same,GI50,CAKI-1 renal,3.78 µM
same,TGI,CAKI-1 renal,17.9 µM
same,GI50,HT29 colon,3.42 µM
same,TGI,HT29 colon,13.4 µM
same,GI50,SNB-19 CNS,9.48 µM
same,TGI,SNB-19 CNS,21.4 µM
same,GI50,A549 NSCLC,3.66 µM
same,TGI,A549 NSCLC,14.2 µM
same,GI50,UACC-257 melanoma,13.4 µM
same,TGI,UACC-257 melanoma,27 µM
same,GI50,MOLT-4 leukemia,7.02 µM
same,TGI,MOLT-4 leukemia,24.8 µM
same,GI50,EKVX NSCLC,7.08 µM
same,TGI,EKVX NSCLC,20.9 µM
same,GI50,SF-539 CNS,4.87 µM
same,TGI,SF-539 CNS,17.2 µM
same,GI50,KM12 colon,4.13 µM
same,TGI,KM12 colon,16.8 µM
same,GI50,UO-31 renal,1.92 µM
same,TGI,UO-31 renal,15.8 µM
same,GI50,BT-549 breast,14.8 µM
same,TGI,BT-549 breast,28.8 µM
same,GI50,UACC-62 melanoma,11.7 µM
same,TGI,UACC-62 melanoma,24 µM
same,GI50,SK-MEL-5 melanoma,12.1 µM
same,TGI,SK-MEL-5 melanoma,25.2 µM
same,GI50,K-562 leukemia,4.06 µM
same,TGI,K-562 leukemia,18.8 µM
same,GI50,MDA-MB-468 breast,4.12 µM
same,TGI,MDA-MB-468 breast,17.3 µM
same,GI50,IGROV1 ovarian,4.87 µM
same,TGI,IGROV1 ovarian,18.5 µM
same,GI50,A498 renal,14.2 µM
same,TGI,A498 renal,29.3 µM
same,GI50,SN12C renal,3.92 µM
same,TGI,SN12C renal,15.5 µM
same,GI50,DU-145 prostate,5.04 µM
same,TGI,DU-145 prostate,16.8 µM
same,GI50,SF-295 CNS,4.09 µM
same,TGI,SF-295 CNS,16.2 µM
same,GI50,OVCAR-4 ovarian,6.19 µM
same,TGI,OVCAR-4 ovarian,20.7 µM
same,GI50,SK-MEL-2 melanoma,13.2 µM
same,TGI,SK-MEL-2 melanoma,26.4 µM
same,GI50,U251 CNS,4.66 µM
same,TGI,U251 CNS,16 µM
same,GI50,NCI-H23 lung,6.07 µM
same,TGI,NCI-H23 lung,19.6 µM
same,GI50,LOX IMVI melanoma,3.72 µM
same,TGI,LOX IMVI melanoma,14.4 µM
same,GI50,PC-3 prostate,3.84 µM
same,TGI,PC-3 prostate,17.5 µM
same,GI50,RXF 393 renal,4.24 µM
same,TGI,RXF 393 renal,15.7 µM
same,GI50,SW-620 colon,3.61 µM
same,TGI,SW-620 colon,15.9 µM
same,GI50,TK-10 renal,13.8 µM
same,TGI,TK-10 renal,27.8 µM
same,GI50,HCT-116 colon,3.6 µM
same,TGI,HCT-116 colon,14.4 µM
same,GI50,HCT-15 colon,3.14 µM
same,TGI,HCT-15 colon,12.9 µM
same,GI50,MCF7 breast,3.35 µM
same,TGI,MCF7 breast,13.9 µM
same,GI50,HS 578T breast,12.5 µM
same,TGI,HS 578T breast,34.3 µM
